In one series the target is T1, FGFR1 (Homo sapiens, UniProt P11362).
T1 construct: purchased Invitrogen
Description: Isolated enzyme FRET-based Z-Lyte kinase inhibition assay. Conditions: means from 3 independent experiments; read-out: Isolate Enzyme Inhibition IC50, FGFR1. It counts as biochemical. As for the experimental part: (§1) FGFR1-4 and the Z-Lyte Kinase Assay Kit were purchased from Invitrogen. The concentration gradients from 5.1×10^−11 to 1.0×10^−6 mol/L were used for all the test compounds. The experiments were performed according to the instructions of the manufacturer.
(§2) FGFR1-4 isolated enzyme activity was determined using the FRET-based Z-Lyte kinase inhibition assay. The data are the means from 3 independent experiments.

A further series addresses T2, FGFR2 (Homo sapiens, UniProt P21802).
T2 construct: purchased Invitrogen
The description is as above. Conditions: means from 3 independent experiments; read-out: Isolate Enzyme Inhibition IC50, FGFR2. It counts as biochemical. As for the experimental part:
as §1, §2

The target in another series is T3, FGFR3 (Homo sapiens, UniProt P22607).
T3 construct: purchased Invitrogen
T3 sequence (P22607 23-806): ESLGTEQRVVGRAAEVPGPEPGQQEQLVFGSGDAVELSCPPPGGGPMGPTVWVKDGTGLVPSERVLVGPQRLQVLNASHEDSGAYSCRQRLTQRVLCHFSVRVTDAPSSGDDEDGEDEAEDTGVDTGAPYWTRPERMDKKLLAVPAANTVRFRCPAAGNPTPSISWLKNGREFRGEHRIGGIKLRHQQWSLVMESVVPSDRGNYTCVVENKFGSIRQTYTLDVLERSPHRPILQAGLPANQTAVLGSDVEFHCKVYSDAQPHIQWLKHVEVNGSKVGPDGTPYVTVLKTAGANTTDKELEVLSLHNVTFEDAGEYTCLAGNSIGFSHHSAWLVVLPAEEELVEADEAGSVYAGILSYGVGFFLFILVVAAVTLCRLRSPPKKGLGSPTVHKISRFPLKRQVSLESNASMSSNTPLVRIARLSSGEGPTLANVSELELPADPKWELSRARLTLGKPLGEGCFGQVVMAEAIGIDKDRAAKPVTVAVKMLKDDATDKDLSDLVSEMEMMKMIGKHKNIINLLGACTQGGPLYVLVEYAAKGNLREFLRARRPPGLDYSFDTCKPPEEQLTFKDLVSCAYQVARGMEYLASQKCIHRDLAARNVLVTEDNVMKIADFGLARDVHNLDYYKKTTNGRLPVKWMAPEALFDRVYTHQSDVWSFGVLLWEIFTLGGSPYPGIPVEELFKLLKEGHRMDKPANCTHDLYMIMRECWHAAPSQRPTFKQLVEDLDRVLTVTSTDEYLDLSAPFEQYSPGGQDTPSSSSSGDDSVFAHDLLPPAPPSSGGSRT
Described as above. It counts as biochemical. Conditions: means from 3 independent experiments; read-out: Isolate Enzyme Inhibition IC50, FGFR3. Here is the method: as §1, §2

For a further series, the system named is SUM52 cells. Description: Oxic and anoxic anti-proliferative activity of the prodrugs. The conditions noted are these: for Hypoxic Cytotoxicity Ratio (HCR), SUM52: ratio of oxic and anoxic IC50.
The subject of series [1] is FGFR3 in SW780 cells (phospho-ERK1/2). Description: Drug washout Western blot assay, SW780 cells. It counts as cell-based. The conditions noted are these: SW780; 30 min exposure, 100 nM, with and without washout.
Where [2] appears, read: read-out: Cellular Anti-proliferative IC50, SUM52, Anoxic, 4 hours of anoxia, remainder of assay oxic.
Where [3] appears, read: read-out: Cellular Anti-proliferative IC50, SUM52, Oxic, oxic conditions.

SMILES strings stand for the structures. pIC50: −log10 of the molar value. Like-named read-outs stand apart in the source and are kept apart here.

T2 sequence (P21802 22-821): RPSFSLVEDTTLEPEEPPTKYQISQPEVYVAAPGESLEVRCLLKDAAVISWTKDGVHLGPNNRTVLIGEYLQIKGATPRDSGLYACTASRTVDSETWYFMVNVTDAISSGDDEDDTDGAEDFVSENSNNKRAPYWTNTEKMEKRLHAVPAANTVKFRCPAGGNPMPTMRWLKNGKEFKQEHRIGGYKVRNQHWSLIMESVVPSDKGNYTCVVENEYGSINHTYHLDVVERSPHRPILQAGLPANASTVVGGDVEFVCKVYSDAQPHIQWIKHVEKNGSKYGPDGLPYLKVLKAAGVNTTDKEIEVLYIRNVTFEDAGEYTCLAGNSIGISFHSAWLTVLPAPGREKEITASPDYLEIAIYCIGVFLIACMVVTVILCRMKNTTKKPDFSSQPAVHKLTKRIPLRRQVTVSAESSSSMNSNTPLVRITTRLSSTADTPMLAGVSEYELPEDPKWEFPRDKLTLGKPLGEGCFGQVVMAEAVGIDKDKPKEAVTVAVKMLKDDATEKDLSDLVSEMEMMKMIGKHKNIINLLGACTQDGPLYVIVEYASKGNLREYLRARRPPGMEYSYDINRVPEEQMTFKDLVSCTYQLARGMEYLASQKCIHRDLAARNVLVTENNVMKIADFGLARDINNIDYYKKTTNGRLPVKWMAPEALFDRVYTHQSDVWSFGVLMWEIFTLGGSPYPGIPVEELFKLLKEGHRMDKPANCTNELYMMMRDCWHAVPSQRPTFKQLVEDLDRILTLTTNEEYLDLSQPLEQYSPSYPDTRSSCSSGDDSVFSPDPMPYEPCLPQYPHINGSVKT
T1 sequence (P11362 22-822): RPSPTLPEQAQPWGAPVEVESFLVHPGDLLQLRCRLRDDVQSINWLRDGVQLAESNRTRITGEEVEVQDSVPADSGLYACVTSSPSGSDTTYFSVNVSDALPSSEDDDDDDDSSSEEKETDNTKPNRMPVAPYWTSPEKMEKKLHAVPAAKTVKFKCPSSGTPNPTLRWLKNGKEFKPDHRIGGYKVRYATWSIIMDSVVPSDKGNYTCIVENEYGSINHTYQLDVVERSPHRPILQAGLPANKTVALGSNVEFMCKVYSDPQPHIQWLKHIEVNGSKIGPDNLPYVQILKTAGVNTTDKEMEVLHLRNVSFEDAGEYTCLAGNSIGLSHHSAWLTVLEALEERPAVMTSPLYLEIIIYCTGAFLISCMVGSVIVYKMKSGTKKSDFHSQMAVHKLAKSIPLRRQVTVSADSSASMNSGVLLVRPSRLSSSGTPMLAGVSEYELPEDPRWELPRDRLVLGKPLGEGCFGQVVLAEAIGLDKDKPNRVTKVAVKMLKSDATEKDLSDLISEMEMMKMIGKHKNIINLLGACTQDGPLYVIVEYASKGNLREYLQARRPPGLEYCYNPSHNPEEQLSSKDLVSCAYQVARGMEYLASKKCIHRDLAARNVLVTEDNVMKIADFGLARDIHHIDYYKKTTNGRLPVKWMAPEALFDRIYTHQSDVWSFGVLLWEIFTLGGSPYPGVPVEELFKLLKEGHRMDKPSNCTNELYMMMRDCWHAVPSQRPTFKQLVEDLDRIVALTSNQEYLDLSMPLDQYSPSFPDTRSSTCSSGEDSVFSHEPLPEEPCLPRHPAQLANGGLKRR

In the case of `COc1cc(OC)c(Cl)c(-c2cc3cnc(NC4CCOC4)nc3n(C3CCN(C(=O)/C=C/CN(C)C)CC3)c2=O)c1Cl` (stereo not shown) [Compound 134, (E)-6-(2,6-dichloro-3,5-dimethoxyphenyl)-8-(1-(4-(dimethylamino)but-2-enoyl)piperidin-4-yl)-2-((tetrahydrofuran-3-yl)amino)pyrido[2,3-d]pyrimidin-7(8H)-one], the pIC50 (usually the IC50 on a negative log10 scale, so that one unit is a factor of ten) at FGFR1 is 8.96; on FGFR2, 8.80; on FGFR3 it was 7.96.

Take `COc1cc(Nc2ncc3cc(-c4c(Cl)c(OC)cc(OC)c4Cl)c(=O)n(C4CCN(C(=O)/C=C/CN(C)C)CC4)c3n2)ccc1F` [Compound 141, (E)-6-(2,6-dichloro-3,5-dimethoxyphenyl)-8-(1-(4-(dimethylamino)but-2-enoyl)piperidin-4-yl)-2-((4-fluoro-3-methoxyphenyl)amino)pyrido[2,3-d]pyrimidin-7(8H)-one]: the pIC50 at FGFR1 was 9.15; on FGFR2 it was 8.82; at FGFR3, 8.26.

On to `CNc1ncc2cc(-c3c(Cl)c(OC)cc(OC)c3Cl)c(=O)n(Cc3cccc(NC(=O)/C=C/CN(C)C)c3)c2n1` [Compound 143, (E)-N-(3-((6-(2,6-dichloro-3,5-dimethoxyphenyl)-2-(methylamino)-7-oxopyrido[2,3-d]pyrimidin-8(7H)-yl)methyl)phenyl)-4-(dimethylamino)but-2-enamide], for which the values for the pIC50 on FGFR1, on FGFR2 and on FGFR3 were 9.10, 9.05 and 8.10, respectively.

Take `CNc1ncc2c(n1)N(C1CCN(C(=O)/C=C/CN3CCCCC3)CC1)C(=O)N(c1c(Cl)c(OC)cc(OC)c1Cl)C2` [Compound 124, (E)-3-(2,6-dichloro-3,5-dimethoxyphenyl)-7-(methylamino)-1-(1-(4-(piperidin-1-yl)but-2-enoyl)piperidin-4-yl)-3,4-dihydropyrimido[4,5-d]pyrimidin-2(1H)-one]: the pIC50 on FGFR1 was 9.10; on FGFR2, 8.72; on FGFR3 it was 7.92.

For `COc1cc(OC)c(Cl)c(-c2cc3cnc(Nc4ccc(F)cc4)nc3n(C3CCN(C(=O)/C=C/CN(C)C)CC3)c2=O)c1Cl` [Compound 139, (E)-6-(2,6-dichloro-3,5-dimethoxyphenyl)-8-(1-(4-(dimethylamino)but-2-enoyl)piperidin-4-yl)-2-((4-fluorophenyl)amino)pyrido[2,3-d]pyrimidin-7(8H)-one], the pIC50 at FGFR1 was 9.52; at FGFR2, 8.96; on FGFR3, 8.22.

`COc1cc(OC)c(Br)c(N2Cc3cnc(NC(C)C)nc3N(C3CCN(C(=O)/C=C/C[N+](C)(C)Cc4c([N+](=O)[O-])ncn4C)CC3)C2=O)c1Br.[Br-]` [Compound 207, (E)-4-(4-(3-(2,6-dibromo-3,5-dimethoxyphenyl)-7-(isopropylamino)-2-oxo-3,4-dihydropyrimido[4,5-d]pyrimidin-1(2H)-yl)piperidin-1-yl)-N,N-dimethyl-N-((1-methyl-4-nitro-1H-imidazol-5-yl)methyl)-4-oxobut-2-en-1-aminium bromide]: the “Hypoxic Cytotoxicity Ratio (HCR), SUM52” value with SUM52 cells turned out to be 53. Also, the pIC50 in the series with SUM52 cells (setting [2]) was 8.10; with SUM52 cells (setting [3]), 6.39.

In the case of `COc1cc(OC)c(Cl)c(-c2cc3cnc(NC4CCCCC4)nc3n(C3CCN(C(=O)/C=C/CN(C)C)CC3)c2=O)c1Cl` [Compound 136, (E)-2-(cyclohexylamino)-6-(2,6-dichloro-3,5-dimethoxyphenyl)-8-(1-(4-(dimethylamino)but-2-enoyl)piperidin-4-yl)pyrido[2,3-d]pyrimidin-7(8H)-one], the values for the pIC50 at FGFR1, on FGFR2 and at FGFR3 were 8.96, 8.89 and 8.17, respectively.

`CNc1ncc2c(n1)N(Cc1cccc(NC(=O)/C=C/CN(C)C)c1)C(=O)N(c1c(Cl)c(OC)cc(OC)c1Cl)C2` [Compound 127, (E)-N-(3-((3-(2,6-dichloro-3,5-dimethoxyphenyl)-7-(methylamino)-2-oxo-3,4-dihydropyrimido[4,5-d]pyrimidin-1(2H)-yl)methyl)phenyl)-4-(dimethylamino)but-2-enamide]: the pIC50 at FGFR1 is 9.00; at FGFR2 it was 8.57; at FGFR3, 7.46.

Take `COc1cc(OC)c(Br)c(-c2cc3cnc(NC(C)C)nc3n(C3CCN(C(=O)/C=C/C[N+](C)(C)Cc4c([N+](=O)[O-])ncn4C)CC3)c2=O)c1Br.[Br-]` [Compound 210, (E)-4-(4-(6-(2,6-dibromo-3,5-dimethoxyphenyl)-2-(isopropylamino)-7-oxopyrido[2,3-d]pyrimidin-8(7H)-yl)piperidin-1-yl)-N,N-dimethyl-N-((1-methyl-4-nitro-1H-imidazol-5-yl)methyl)-4-oxobut-2-en-1-aminium bromide]: the “Hypoxic Cytotoxicity Ratio (HCR), SUM52” value in the series with SUM52 cells came out at 9. The pIC50 with SUM52 cells (setting [2]) is 8.40; with SUM52 cells (setting [3]), 7.46.

Take `COc1cc(OC)c(Cl)c(-c2cc3cnc(NC4CCOCC4)nc3n(C3CCN(C(=O)/C=C/CN(C)C)CC3)c2=O)c1Cl` [Compound 135, (E)-6-(2,6-dichloro-3,5-dimethoxyphenyl)-8-(1-(4-(dimethylamino)but-2-enoyl)piperidin-4-yl)-2-((tetrahydro-2H-pyran-4-yl)amino)pyrido[2,3-d]pyrimidin-7(8H)-one]: the pIC50 at FGFR1 was 9.05; on FGFR2 it was 8.92; at FGFR3, 8.20.

Turning to `COc1cccc(Nc2ncc3cc(-c4c(Cl)c(OC)cc(OC)c4Cl)c(=O)n(C4CCN(C(=O)/C=C/CN(C)C)CC4)c3n2)c1` [Compound 140, (E)-6-(2,6-dichloro-3,5-dimethoxyphenyl)-8-(1-(4-(dimethylamino)but-2-enoyl)piperidin-4-yl)-2-((3-methoxyphenyl)amino)pyrido[2,3-d]pyrimidin-7(8H)-one], the pIC50 was 9.15 on FGFR1, 9.05 on FGFR2 and 8.31 at FGFR3.

Consider `CNc1ncc2cc(-c3c(Cl)c(OC)cc(OC)c3Cl)c(=O)n(C3CCN(C(=O)/C=C/CN(C)C)CC3)c2n1` [Compound 132, (E)-6-(2,6-dichloro-3,5-dimethoxyphenyl)-8-(1-(4-(dimethylamino)but-2-enoyl)piperidin-4-yl)-2-(methylamino)pyrido[2,3-d]pyrimidin-7(8H)-one], for which the values for the negative-log IC50 (pIC50) on FGFR1, at FGFR2 and on FGFR3 were 9.15, 9.00 and 8.31, respectively.

As for `COc1ccc(Nc2ncc3c(n2)N(C2CCN(C(=O)/C=C/C[N+](C)(C)Cc4c([N+](=O)[O-])ncn4C)CC2)C(=O)N(c2c(Cl)c(OC)cc(OC)c2Cl)C3)cc1.[Br-]` [Compound 206, (E)-4-(4-(3-(2,6-dichloro-3,5-dimethoxyphenyl)-7-((4-methoxyphenyl)amino)-2-oxo-3,4-dihydropyrimido[4,5-d]pyrimidin-1(2H)-yl)piperidin-1-yl)-N,N-dimethyl-N-((1-methyl-4-nitro-1H-imidazol-5-yl)methyl)-4-oxobut-2-en-1-aminium bromide], in the series with SUM52 cells, the “Hypoxic Cytotoxicity Ratio (HCR), SUM52” value is recorded as 8. The pIC50 was 9.00 in the series on SUM52 cells (setting [2]) and 8.10 in the series with SUM52 cells (setting [3]).

In the case of `COc1cc(OC)c(Cl)c(-c2cc3cnc(NC(C)C)nc3n(Cc3cccc(NC(=O)/C=C/CN(C)C)c3)c2=O)c1Cl` [Compound 145, (E)-N-(3-((6-(2,6-dichloro-3,5-dimethoxyphenyl)-2-(isopropylamino)-7-oxopyrido[2,3-d]pyrimidin-8(7H)-yl)methyl)phenyl)-4-(dimethylamino)but-2-enamide], the pIC50 was 8.89 on FGFR1, 8.60 on FGFR2 and 8.16 on FGFR3.

Turning to `COc1cc(OC)c(Br)c(-c2cc3cnc(Nc4ccccc4)nc3n(C3CCN(C(=O)/C=C/C[N+](C)(C)Cc4c([N+](=O)[O-])ncn4C)CC3)c2=O)c1Br.[Br-]` [Compound 212, (E)-4-(4-(6-(2,6-dibromo-3,5-dimethoxyphenyl)-7-oxo-2-(phenylamino)pyrido[2,3-d]pyrimidin-8(7H)-yl)piperidin-1-yl)-N,N-dimethyl-N-((1-methyl-4-nitro-1H-imidazol-5-yl)methyl)-4-oxobut-2-en-1-aminium bromide], the “Hypoxic Cytotoxicity Ratio (HCR), SUM52” value in the series with SUM52 cells is on record as 8. Moreover, the values for the pIC50 in the series with SUM52 cells (setting [2]) and in the series on SUM52 cells (setting [3]) were 8.70 and 7.89, respectively.

With `CCNc1ncc2cc(-c3c(Cl)c(OC)cc(OC)c3Cl)c(=O)n(Cc3cccc(NC(=O)/C=C/CN(C)C)c3)c2n1` [Compound 144, (E)-N-(3-((6-(2,6-dichloro-3,5-dimethoxyphenyl)-2-(ethylamino)-7-oxopyrido[2,3-d]pyrimidin-8(7H)-yl)methyl)phenyl)-4-(dimethylamino)but-2-enamide], the pIC50 was 9.05 at FGFR1, 8.80 at FGFR2 and 8.17 on FGFR3.

Regarding `C=CC(=O)N1CCC(N2C(=O)N(c3c(Cl)c(OC)cc(OC)c3Cl)Cc3cnc(NC)nc32)CC1` [Compound 156, 1-(1-acryloylpiperidin-4-yl)-3-(2,6-dichloro-3,5-dimethoxyphenyl)-7-(methylamino)-3,4-dihydropyrimido[4,5-d]pyrimidin-2(1H)-one], the “reversible or irreversible inhibition of FGFR3 in cells” value in series [1] is on record as “potent reversible inhibitors”.

Regarding `CNc1ncc2cc(-c3c(Cl)c(OC)cc(OC)c3Cl)c(=O)n(C(C)c3cccc(NC(=O)/C=C/CN(C)C)c3)c2n1` (stereo not shown) [Compound 146, (E)-N-(3-(1-(6-(2,6-dichloro-3,5-dimethoxyphenyl)-2-(methylamino)-7-oxopyrido[2,3-d]pyrimidin-8(7H)-yl)ethyl)phenyl)-4-(dimethylamino)but-2-enamide], the pIC50 at FGFR1 is 8.92; at FGFR2 it was 8.92; on FGFR3, 8.21.
